Laboratory results: patent US20220194952A1, “TETRAPYRROLIC CONJUGATES AND USES THEREOF FOR IMAGING” (Health Research, Inc., priority 2019, published 2022)
Each block holds one molecule with its values, some of them ahead of it.

Key:
Colon26 tumors [1] = assay: PET imaging of 124I-analogs; conditions: ethanol/PBS formulation, 25 μCi/mouse
Protocol: Compounds were resuspended in 10% ethanol saline, and ˜50 μCi were injected per mouse.
Final product was formulated in 10% ethanol in saline for injection in mice for PET imaging and biodistribution studies. Formulations noted as Pluronic® were formulated in 2% Pluronic® F-127 in saline. Mice were injected with 50 μCi (˜100 μL) for biodistribution, or 100 μCi (˜200 μL) for PET imaging.

Colon26 tumors [2] = assay: In vivo biodistribution of 124I-analogs; design: species or system BALB/c mice; conditions: for organ distribution (in words): ethanol/PBS formulation, i.v., 24, 48, 72 hours
Protocol: From left to right, each group is 24 hours 2, 48 hours 2, 72 hours 2, 24 hours 6, 48 hours 6, and 72 hours 6.
The labeled product, 6, was collected and dried.

[3] = Singlet oxygen phosphorescence at 1270 nm, methanol, pulsed laser 532 nm; assay type: physicochemical; conditions: near 5 μM, equi-absorbant at 532 nm, excited at 532 nm
Protocol: The photosensitizers, e. g., HPPH (control), 2 and 4 were individually dissolved in methanol (concentration: 5 μM) in polystyrene cuvettes and excited at 532 nm using a pulsed laser. Phosphorescence of singlet oxygen was detected at 1270 nm.
Before evaluating the imaging and photosensitizing potential of the chlorin 4 with extended ring system, its singlet oxygen producing ability was compared with the related chlorin 2. In brief, both compounds were individually dissolved in methanol in equi-absorbant (at 532 nm) concentrations near 5 μM and excited at 532 nm using a pulsed laser. The phosphorescence of singlet oxygen was detected at 1270 nm. From the results summarized in FIG. 4, it can be seen that compared to chlorin 2 with a five-member isocyclic ring, the related analog 4 with an extended ring system had remarkably lower singlet oxygen producing ability. Singlet oxygen quantum yields were φ=0.29 and φ=0.02 respectively, compared to HPPH φ=0.45.

Colon26 tumors [4] = assay: In vivo PDT efficacy; design: species or system BALB/c mice; conditions: dose 1 μmol/kg; light 135 J/cm^2, 75 mW/cm^2 at 24 h postinjection; 5 mice/group
Protocol: Tumors were exposed to light (135 J/cm^2, 75 mW/cm^2) at 24 h (hour) postinjection (optimal time for tumor uptake for both the PSs).
For determining the in vivo imaging and therapeutic potential of 2, BALB/c mice (5-10 mice/group) bearing Colon26 tumors were used. In brief, 1×10^6 Colon26 cells were injected in mice subcutaneously. The tumors were left to grow for 1 week until they achieve the desired size (3-5 mm) for treatment. The photosensitizer was injected intravenously following the animal protocol approved by RPCI IACUC committee. Irradiance occurred 24 hours after i. v. injection; light dose was 135 J/cm^2 at a dose rate of 75 mW/cm^2 using the near-IR wavelengths of interest: 665 nm or 789 nm.
Two axes of the tumor (L, longest axis; W, shortest axis) were measured in millimeters with the aid of a Vernier caliper. Tumor weight (mg) was estimated as a formula: tumor weight=1/2 (L×W2). Tumor measurements were taken daily for the first 10 days and at least three tine a week for the first 4 weeks of post therapy and twice a week thereafter. Endpoints were 400 mm^3 tumor volume or 60 days.

Colon26 tumors [5] = assay: In vivo whole body tumor fluorescence imaging (IVIS Spectrum); design: species or system BALB/c mice; conditions: non-radioactive analogs, i.v., post-injection
Protocol: Before evaluating in vivo PDT efficacy of PS 4 by exposing the tumors with light, the time point for optimal tumor uptake of PS was determined by whole body fluorescence imaging of tumored mice at various time points after injecting the PS.
The multi-spectral imaging system, IVIS Spectrum (Perkin-Elmer) along with Living Image (image acquisition and analysis software) was used. IVIS Spectrum has the capability to use either trans-illumination (from the bottom) or epi-illumination (from the top) to illuminate in vivo fluorescent sources. […] Regions of interest (ROI) were defined for areas of compound accumulation (tumor, liver, skin) and total and average signal within the region were recorded. Fluorescent intensity is expressed as the total radiant efficiency ([p/s]/[μW/cm^2]. Results are expressed as mean total radiant efficiency of three mice±SD.

[6] = Absorbance (UV-VIS) in methanol; assay type: physicochemical; conditions: ε665 for 2 (peak 660 nm), ε785 for 4 (peak 785 nm)
Protocol: Absorbance of 2 and 4 was measured using different concentrations in methanol on UV-VIS and indicates far-red peaks at 660 nm and 785 nm, with extinction coefficients ε665=47,500 L·mol^−1 cm^−1 and ε785=18,100 L·mol^−1 cm^−1 respectively.
Chemistry Methods: All reactions were carried out in heat gun-dried glassware under an atmosphere of nitrogen and magnetic stirring. Thin layer chromatography (TLC) was done on pre-coated silica gel sheets (layer thickness 0.2 mm). Column chromatography was performed either using silica gel 60 (70-230 mesh) or neutral alumina grade III. In some cases preparative TLC was used for the purification of compounds. Purity of the compounds was ascertained by TLC and HPLC analysis. All compounds including the intermediates were >95% pure. UV-visible spectra were recorded on FT UV-visible spectrophotometer using methanol as a solvent. Mass spectrometry analyses were performed at the Mass Spectrometry Facility, University at Buffalo, N.Y. Compounds 1 and 2 were synthesized by following the methodologies previously described.

[7] = Photobleaching in 17% bovine calf serum; assay type: physicochemical; conditions: 660 nm
Protocol: Photobleaching was performed in quartz cuvettes on a 5 μM solution of 2 and a 25 μM solution of 4 in 17% BCS. The higher molarity was chosen to approximate the absorbance of 2 at 5 μM. A dye laser was used at dose rate 75 mW/cm^2, and excitation wavelength for 2 was 660 nm and for 4 was 785 nm.
In photodynamic therapy, photobleaching is the photochemical alteration of a chromophore or a fluorophore molecule such that could either permanently is unable to fluoresce or alter its fluorescence characteristics. This is caused by cleaving of the covalent bonds or non-specific reaction between the reactive oxygen species (e.g., singlet oxygen) and the molecule. These […] species formed by conversion of the molecular oxygen present in tumor to singlet oxygen by exposing the photosensitizer with light at an appropriate wavelength. The rate of photobleaching of the PS should depend (a) availability of oxygen, (b) photostability of PS and finally (c) the singlet oxygen (or other reactive oxygen species) producing ability of the PS.
To investigate the photobleaching characteristics of the photosensitizers, compounds 2 and 4 in equimolar concentrations (5 μM) were taken in quartz cuvettes in 17% bovine calf serum. Dye lasers with appropriate wavelength (2: 660 nm and 4: 785 nm) were used at a dose rate of 75 mW/cm^2. Both the compounds in formulated forms were irradiated with light and the absorption spectra at their long wavelength absorptions were measured with time. The decay in absorbance was plotted against the time of light exposure.

Colon26 cells = assay: In vitro cytotoxicity (PDT) MTT assay; assay type: cell-based
Protocol: Drug concentrations were increased 10× (0.25 to 32.0 μM) and a significant cytotoxicity was observed only at high concentrations at the highest light dose.
Assessment of cell growth following treatment with compound solutions alone and after light exposure was determined by a colorimetric assay that measured the reduction of yellow 3-(4,5-dimethythiazol-2-yl)-2,5-diphenyl tetrazolium bromide (MTT) by mitochondrial succinate dehydrogenase.
Briefly cells were plated into 96 well plates, allowed to adhere to the plate and are treated with a range of compound concentrations for various lengths of time. The light source consisted of dye lasers (375; Spectra-Physics, Mt. View, Calif.) pumped by an argon-ion laser (either 171 or 2080; Spectra-Physics). The dye lasers were tuned to the appropriate wavelength for the compound being tested. Total light doses were ranged from 0.125 to 1.0 J/cm^2 at a fluence rate of 3.2 mW/cm^2. At 48 hours post PDT treatment, MTT was added. The solubilized formazan product was measured spectro-photometrically using a BIOTEK EL-800 plate reader. Data were processed using GEN5 software. A medium blank value was subtracted from all samples and Optical Density (O.D.) values of treated cells were divided by mean O.D. value of untreated cells for each light dose).
Colon26 cells were plated and allowed to adhere for 4 hours, then the photosensitizer was added and incubated at 37° C. for 24 hours. Plates were irradiated with 789 nm light from a dye laser at 3.2 mW/cm^2 for a total dose of 0.25 to 1.0 Joule/cm^2.

time of maximum tumor uptake (PET) (Colon26 tumors [1]): 24 h
organ distribution (in words) (Colon26 tumors [2]): significantly high uptake in spleen
Molecule: CCC1=C(C)c2cc3[nH]c(cc4nc(c5c6[nH]c(cc1n2)c(C)c6C(=O)C5)[C@@H](CCC(=O)OC)[C@@H]4C)c(C)c3C(C)OCc1cccc(I)c1 (stereo partly shown) [Compound 2a, 3-(1′-m-iodobenzyloxy) ethyl-3-devinyl-pyropheo phorbide-a methyl ester, reference compound]

Singlet oxygen quantum yield φ [3]: 0.45
Molecule: HPPH

tumor uptake (Colon26 tumors [2]; BALB/c mice implanted with Colon26 tumors, i.v.): > 9 % of the injected dose
Molecule: CCC1=C(C)c2cc3[nH]c(cc4nc(c5c6[nH]c(cc1n2)c(C)c6C=C(OC)C5=O)[C@@H](CCCC(=O)OC)[C@@H]4C)c(C)c3[C@H](C)OCc1cccc([124I])c1 [Compound 6, Methyl 3-[1′-(m-^124iodobenzyloxy)ethyl]-3-devinyl-13^3-keto-13^2methoxycyclohexene (verdin)]
organ distribution (in words) (Colon26 tumors [2]): significantly higher uptake in tumor than other organs

Singlet oxygen quantum yield φ [3]: 0.29
time of optimal uptake in tumor (fluorescence imaging) (Colon26 tumors [5]): 24 h
extinction coefficient at far-red absorbance peak [6]: 47,500 L·mol^−1 cm^−1
photobleaching experimental endpoint reached ([7]; 5 μM in 17% BCS, 75 mW/cm^2): 20%
fraction photobleached ([7]; 17% bovine calf serum, 5 μM, 75 mW/cm^2, by three hours): 80%
Molecule: CCC1=C(C)c2cc3[nH]c(cc4nc(c5c6[nH]c(cc1n2)c(C)c6C(=O)C5)[C@@H](CCC(=O)OC)[C@@H]4C)c(C)c3C(C)OCc1cccc([124I])c1 (stereo partly shown) [Compound 2, methyl 3-[1′-(m-iodobenzyloxy)ethyl]-3-devinyl pyropheophorbide]
tumor cure after PDT (Colon26 tumors [4]): 80%
in vitro cytotoxicity at 10× increased drug concentrations (in words) (Colon26 cells; 0.25 to 32.0 μM, significant cytotoxicity only at high concentrations at the highest light dose (FIG. 8B)): toxic effects only at high concentrations
in vitro cytotoxicity (in words) (Colon26 cells; variable drug concentrations, fixed light dose 1.0 J/cm^2 (FIG. 8A)): light dose-dependent cytotoxicity
